In patent US5117052A, “Physiologically active substances, benastatins A and B, and production and use thereof” (priority 1990, dated 1992):
In brackets after ≈: the same amount, converted by molar mass.

Columns and labels:
[1] = test system: Aspergillus niger F-16; test: Agar dilution assay, minimum growth inhibition concentration; type: cell-based; details: Aspergillus niger, F16, read-out: Minimum growth-inhibition concentration
[2] = test system: murine spleen cells (LPS-induced lymphocyte blastogenesis); test: Effect on LPS-induced murine lymphocyte blastogenesis in vitro (Test 4); type: cell-based, BALB/c mouse
Method: (§1) In lymphocyte blast formation reaction, use was made of benastatin B as a solution prepared in a manner, wherein benastatin B was dissolved in methanol and admixed with PBS(-), with the proviso that the concentration of methanol in the final solution was 0.5%.
(§2) (a) Effect on lymphocyte blast formation reaction
(§3) For the cultivation, use was made of RPMI 1640 culture medium supplemented with 20% bovine fetus serum, 25 mM Hepes buffer, 100 μg/ml streptomycin and 100 units/ml penicillin G. The cultivation was carried out in a microplate (COSTAR) with flat bottom and with 96 wells. As the mitogens, lipopolysaccharide (LPS) and concanavalin A (Con A) were used at the final concentrations of 100 μg/ml and 5 μg/ml, respectively.
(§4) Spleen cells were taken out from BALB/c mouse (female, at most 20 weeks old) to prepare a unicellular dispersion of spleen cells. This dispersion was subjected to a hyper shock treatment to remove erythrocytes therefrom. The resulting spleen cell sample was directly used in the test employing LPS. Alternatively, the spleen cell sample was filtered through Nylon Fiber (manufactured by Wako Jun-yaku Co., Ltd.) for removing […] therefrom, and then the cell sample was used in the test employing Con A.
(§5) Each well was charged with 0.2 ml of a test sample containing 2×10^5 murine spleen cells and the test compound at a predetermined concentration. The cultivation was effected for 72 hours. Before 8 hours from the termination of the cultivation, the wells each were charged with 37 KBq of [^3 H]-thymidine in order to determine the amount of thymidine taken into the cells. The effect of the test compound was estimated by comparing the test samples with the control samples, with respect to the amount of [^3 H]-thymidine taken into the cells.

[3] = test system: murine spleen cells (Con A-induced lymphocyte blastogenesis); test: Effect on Con A-induced murine lymphocyte blastogenesis in vitro (Test 4); type: cell-based, BALB/c mouse; details: Mus musculus, 72 h
Method: as §1, §2, §3, §4, §5

[4] = test system: Salmonella typhi T-63; test: Agar dilution assay, minimum growth inhibition concentration; type: cell-based; details: Salmonella enterica
[5] = test system: Staphylococcus aureus No. 5 (MRSA); test: as above; type: cell-based; details: read-out: Minimum growth-inhibition concentration
[6] = test system: Pyricularia oryzae; test: microbe, parasite or virus in culture; type: cell-based; details: read-out: Minimum growth-inhibition concentration
[7] = test system: Saccharomyces cerevisiae F-7; test: Agar dilution assay, minimum growth inhibition concentration; type: cell-based; details: Saccharomyces cerevisiae, F7, read-out: Minimum growth-inhibition concentration
[8] = test system: mouse; test: Toxicity on administration to the abdominal cavity; type: in vivo; details: 100 mg/kg
Description: Benastatins A and B were each administered to the abdominal cavity of a mouse to examine the toxicity thereof.

[9] = test system: Escherichia coli NIHJ; test: Agar dilution assay, minimum growth inhibition concentration; type: cell-based; details: Escherichia coli, read-out: Minimum growth-inhibition concentration
[10] = test system: Mycabacterium smegmatis ATCC607; test: as above; type: cell-based; details: read-out: Minimum growth-inhibition concentration
[11] = test system: Shigella dysenteriae JS11910; test: as above; type: cell-based; details: JS11910, read-out: Minimum growth-inhibition concentration
[12] = test system: Staphylococcus aureus No. 17 (MRSA); test: as above; type: cell-based; details: read-out: Minimum growth-inhibition concentration
[13] = test system: Pseudomanas aeruginosa A3; test: as above; type: cell-based; details: read-out: Minimum growth-inhibition concentration
[14] = test system: graft versus host reaction (GvH); test: Effect on graft versus host reaction (GvH) in vivo; parameters: species or system mouse (C57BL/6 spleen cells into BDF1 mouse); details: for Spleen/body weight / Index (spleen/body weight; non induced = 1.00): subcutaneous, 3 days, day 7; for Index (spleen/body weight; non induced = 1.00): induced = 1.84
Description: In the graft versus host reaction (GvH), use was made of benastatin B dissolved in physiological saline.
(b) Effect on graft versus host reaction (GvH)
The effect on GvH was estimated according to a modified method based on the method described in M. Simonsen et al, "A study of the graft versus host reaction in transplantation to embryos, F1 hybrids, and irradiated animals", Ann. N.Y. Acad. Sci., 73, 834-841 ([…]).
Spleen cells were taken out from C57BL/6 mouse (female, 10 weeks old) to prepare a murine spleen cell sample containing 5×10^6 spleen cells according to the method as mentioned above. The spleen cell sample was transplanted into the abdominal cavity of BDF1 mouse (7 days old) as the F1 acceptor. The test compound at a predetermined concentration was subcutaneously injected over a period of time of 3 days including the initial day of said transplantation. After 7 days from the inital transplantation, measurements were made about the body weight and the spleen weight of the BDF1 mouse to calculate the ratio (mg/g) of spleen weight (mg) to body weight (g).

[15] = test system: Klebsiella pneumoniae PCI602; test: Agar dilution assay, minimum growth inhibition concentration; type: cell-based; details: Klebsiella pneumoniae, PCI602, read-out: Minimum growth-inhibition concentration
[16] = test system: Candida tropicalis F-1; test: as above; type: cell-based; details: Candida tropicalis, F1, read-out: Minimum growth-inhibition concentration
[17] = target: T1, glutathione transferase (Rattus norvegicus, UniProt P04905); test: Glutathione transferase inhibition activity (3,4-dichloronitrobenzene/glutathione, absorption at 345 nm); type: biochemical
T1 construct: obtained from a homogenate of rat liver; from tissue; host or cells: rat liver homogenate, partially purified by DEAE-cellulose column and ammonium sulfate salting-out
T1 sequence (P04905 2-218 limits assumed): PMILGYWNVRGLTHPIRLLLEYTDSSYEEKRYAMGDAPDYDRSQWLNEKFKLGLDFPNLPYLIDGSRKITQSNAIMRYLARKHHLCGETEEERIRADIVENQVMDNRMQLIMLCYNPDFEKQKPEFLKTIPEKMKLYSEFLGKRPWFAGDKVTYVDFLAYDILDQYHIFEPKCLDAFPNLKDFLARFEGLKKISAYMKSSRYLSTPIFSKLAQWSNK
Method: The glutathione transferase inhibition activity was determined by a modified method based on the known method described in Biochemical and Biophysical Research Communications, 112, 980-985 (1983).
A test tube was charged with a solution mixture consisting of (a) 0.1 ml of 90 mM glutathione (reduction type), (b) 0.05 ml of 20 mM 3,4-dichloronitrobenzene, (c) 1.7 ml of 0.1M potassium phosphate buffer solution (pH 7.4) and (d) 0.1 ml of an aqueous solution containing the test compound. The solution mixture was heated to 37° C. for 3 minutes, and admixed with 0.05 ml of a glutathione transferase solution to effect a reaction at 37° C. for 30 minutes. The glutathione transferase solution employed was one which had been obtained from a homogenate of rat liver and which had been patially refined by means of a DEAE-cellulose column and of salting out-operation with ammonium sulfate.
After the completion of the reaction, the sample was measured for the light absorption (a) at 345 nm. At the same time, a control sample which was free of the test compound and which contained only the buffer solution was measured for the light absorption (b) at 345 nm.
The glutathione transferase inhibition activity was determined according to the formula: […]
IC50, which is the concentration of a test compound required for 50% inhibition, was recorded.

[18] = test system: Staphylococcus aureus MS9610; test: Agar dilution assay, minimum growth inhibition concentration; type: cell-based
Method: (§6) The minimum of microorganism growth inhibition concentrations of benastatins A and B were determined for various bacteria, east and fungi according to a conventional agar dilution assay method. It will be seen from Table 1 that benastatins A and B have a satisfactory antimicrobial activity, particularly against gram-positive bacteria, etc.

[19] = test system: Cochliobolus miyabeanus; test: as above; type: cell-based; details: Bipolaris oryzae
Method: as §6

[20] = test system: Bacillus cereus ATCC10702; test: as above; type: cell-based
Method: as §6

[21] = test system: Bacillus subtilis NRRL B-558; test: as above; type: cell-based; details: NRRLB558
Method: as §6

[22] = test system: Cryptococcus neoformans F-10; test: as above; type: cell-based; details: F10
Method: as §6

[23] = test system: Corynebacterium bovis 1810; test: as above; type: cell-based
Method: as §6

[24] = test system: Micrococcus luteus FDA16; test: as above; type: cell-based
Method: as §6

[25] = test system: Staphylococcus aureus Smith; test: as above; type: cell-based
Method: as §6

[26] = test system: Proteus rettgeri GN311; test: as above; type: cell-based; details: Providencia rettgeri, GN311, read-out: Minimum growth-inhibition concentration
[27] = Mus musculus, Lymphocyte, 72 h, read-out: Stimulation index LPS
[28] = read-out: Stimulation index Con A

**Q.** Which MIC [1] does the source give for `CCCCCc1cc2c(c(O)c1C(=O)O)-c1cc3c(c(O)c1CC2)C(=O)c1c(O)cc(O)cc1C3(C)C` [Benastatin B, benastatin B] here?
**A.** > 100 µg/mL

**Q.** What about the activity at 6.25 µg/mL [2, 27] of the same compound?
**A.** 138%

**Q.** What about the activity at 12.5 µg/mL [2, 27] of the same compound?
**A.** 58.9%

**Q.** What about the activity at 50 µg/mL [2, 27] of the same compound?
**A.** 0.4%

**Q.** And the activity at 3.13 µg/mL ([2]; Mus musculus, Lymphocyte, 72 h, 3.13 μg/ml, control = 100, read-out: Stimulation index LPS)?
**A.** 148%

**Q.** What about the activity at 25 µg/mL ([2]; Mus musculus, Lymphocyte, 72 h, 25 μg/ml, control = 100, read-out: Stimulation index LPS) of the same compound?
**A.** 0.2%

**Q.** What about the activity at 100 µg/mL ([2]; Mus musculus, Lymphocyte, 72 h, 100 μg/ml, control = 100, read-out: Stimulation index LPS) of the same compound?
**A.** 0.2%

**Q.** And the minimal effective concentration ([2]; Mus musculus, Lymphocyte, 72 h, read-out: concentration that significantly suppresses LPS-induced lymphocyte blast formation)?
**A.** ≥ 12.5 µg/mL

**Q.** What about the “effect on LPS-induced lymphocyte blast formation at a low concentration” value ([2]; low concentration) of the same compound?
**A.** potentiates

**Q.** And the activity at 3.13 µg/mL ([3]; 3.13 μg/ml, control = 100, read-out: Stimulation index Con A)?
**A.** 106%

**Q.** And the activity at 25 µg/mL ([3]; 25 μg/ml, control = 100, read-out: Stimulation index Con A)?
**A.** 1%

**Q.** What about the activity at 100 µg/mL ([3]; 100 μg/ml, control = 100, read-out: Stimulation index Con A) of the same compound?
**A.** 0.9%

**Q.** What about the activity at 6.25 µg/mL [3, 28] of the same compound?
**A.** 12.6%

**Q.** What about the activity at 12.5 µg/mL [3, 28] of the same compound?
**A.** 26.8%

**Q.** And the activity at 50 µg/mL [3, 28]?
**A.** 1%

**Q.** What about the minimal effective concentration ([3]; read-out: concentration that significantly suppresses Con A-induced lymphocyte blast formation) of the same compound?
**A.** ≥ 6.25 µg/mL

**Q.** What about the MIC [4] of the same compound?
**A.** > 50 µg/mL

**Q.** And the MIC [5]?
**A.** 3.12 µg/mL (≈ 6.21 µM)

**Q.** And the MIC [6]?
**A.** 50 µg/mL (≈ 99.5 µM)

**Q.** What about the MIC [7] of the same compound?
**A.** > 50 µg/mL

**Q.** What about the Toxicity [8] of the same compound?
**A.** No toxicity was observed

**Q.** What about the MIC [9] of the same compound?
**A.** 100 µg/mL (≈ 199 µM)

**Q.** What about the MIC [10] of the same compound?
**A.** 12.5 µg/mL (≈ 24.9 µM)

**Q.** And the MIC [11]?
**A.** > 50 µg/mL

**Q.** And the MIC [12]?
**A.** 3.12 µg/mL (≈ 6.21 µM)

**Q.** What about the MIC [13] of the same compound?
**A.** 50 µg/mL (≈ 99.5 µM)

**Q.** And the Spleen/body weight ([14]; 0.5 mg/kg)?
**A.** 12.5 ± 2.2 mg/kg

**Q.** And the “Index (spleen/body weight; non induced = 1.00)” value ([14]; 0.5 mg/kg)?
**A.** 2.78

**Q.** And the Spleen/body weight ([14]; 5 mg/kg)?
**A.** 11.5 ± 0.8 mg/kg

**Q.** What about the “Index (spleen/body weight; non induced = 1.00)” value ([14]; 5 mg/kg) of the same compound?
**A.** 2.56

**Q.** What about the Spleen/body weight ([14]; 50 mg/kg) of the same compound?
**A.** 10.6 ± 1.3 mg/kg

**Q.** What about the “Index (spleen/body weight; non induced = 1.00)” value ([14]; 50 mg/kg) of the same compound?
**A.** 2.36

**Q.** What about the “effect on GvH” value ([14]; various amounts, strongest in a lower amount) of the same compound?
**A.** significantly promotes GvH

**Q.** And the MIC [15]?
**A.** > 50 µg/mL

**Q.** And the MIC [16]?
**A.** > 50 µg/mL

**Q.** And the IC50 [17]?
**A.** 1830 nM

**Q.** What about the MIC [18] of the same compound?
**A.** 3.12 µg/mL (≈ 6.21 µM)

**Q.** What about the MIC [19] of the same compound?
**A.** > 25 µg/mL

**Q.** What about the MIC [20] of the same compound?
**A.** 3.12 µg/mL (≈ 6.21 µM)

**Q.** And the MIC [21]?
**A.** 3.12 µg/mL (≈ 6.21 µM)

**Q.** What about the MIC [22] of the same compound?
**A.** 50 µg/mL (≈ 99.5 µM)

**Q.** And the MIC [23]?
**A.** 3.12 µg/mL (≈ 6.21 µM)

**Q.** What about the MIC [24] of the same compound?
**A.** 3.12 µg/mL (≈ 6.21 µM)

**Q.** What about the MIC [25] of the same compound?
**A.** 3.12 µg/mL (≈ 6.21 µM)

**Q.** And the MIC [26]?
**A.** 50 µg/mL (≈ 99.5 µM)
